According to patent US10988459B2 (priority 2015, dated 2021):

These compounds were tested against human RIP1 kinase domain (2-375) (Homo sapiens (Human), UniProt Q13546) (assay: biochemical). Conditions: Table 3; apparent Ki (Morrison tight-binding fit); 50 nM RIP1 kinase domain, 50 uM ATP, 2 hours incubation; read-out: Ki.
Assay type: biochemical
Procedure, shortened: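 Ki^app comes from Morrison tight-binding fits of fractional activity versus compound concentration. Activity was read as ADP production, via tracer displacement lowering fluorescence polarization (633 nm laser). Conditions: 2 h, 50 nM insect-cell-expressed enzyme, 50 uM ATP, 30 mM MgCl2, 1 mM DTT, 0.5% DMSO, pH 7.5 Hepes.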

Sequence of human RIP1 kinase domain (2-375) (Q13546 2-375): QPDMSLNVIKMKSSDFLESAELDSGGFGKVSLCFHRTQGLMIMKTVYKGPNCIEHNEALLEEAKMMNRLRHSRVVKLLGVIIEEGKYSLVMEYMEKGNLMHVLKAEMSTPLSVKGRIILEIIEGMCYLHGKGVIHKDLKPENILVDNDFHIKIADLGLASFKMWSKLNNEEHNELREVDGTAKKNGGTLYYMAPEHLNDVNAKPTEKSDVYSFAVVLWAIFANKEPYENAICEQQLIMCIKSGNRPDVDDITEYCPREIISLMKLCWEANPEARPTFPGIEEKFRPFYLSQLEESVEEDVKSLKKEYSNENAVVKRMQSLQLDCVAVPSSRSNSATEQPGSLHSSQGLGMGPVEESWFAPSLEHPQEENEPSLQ

Row | Structure (SMILES) | Ki [nM]
1 | CN1C(=O)[C@@H](NC(=O)c2n[nH]c3ccc(Cl)cc23)COc2ccccc21 [Example 338, (S)-5-chloro-N-(5-methyl-4-oxo-2,3,4,5-tetrahydrobenzo[b][1,4]oxazepin-3-yl)-1H-indazole-3-carboxamide] | 21

Same assay, conditions: Table 5; apparent Ki (Morrison tight-binding fit); 50 nM RIP1 kinase domain, 50 uM ATP, 2 hours incubation; read-out: Ki

Row | Ki [nM] | Structure (SMILES)
2 | 112 | CN1C(=O)[C@@H](NC(=O)c2nc3n(n2)CCN(C)C3c2ccccc2)COc2ccccc21 (stereo partly drawn) [Example 786, 7-methyl-N-[(3S)-5-methyl-4-oxo-2,3-dihydro-1,5-benzoxazepin-3-yl]-8-phenyl-6,8-dihydro-5H-[1,2,4]trizolo [1,5-a]pyrazine-2-carboxamide]
3 | 337 | CN1C(=O)[C@@H](NC(=O)c2ncn(Cc3ccccc3F)n2)CCn2nc(CCN3CC(F)C3)cc21 [Example 770, 1-[(2-fluorophenyl)methyl]-N-[(6S)-2-[2-(3-fluoroazetidin-1-yl)ethyl]-4-methyl-5-oxo-7,8-dihydro-6H-pyrazolo[1,5-a][1,3]diazepin-6-yl]-1,2,4-triazole-3-carboxamide]
4 | 225 | COCCNCc1cc2n(n1)CCC(NC(=O)c1ncn(Cc3ccccc3)n1)C(=O)N2C (single isomer, unassigned) [Example 784]
5 | 51 | COCCc1cc2n(n1)CC[C@H](NC(=O)c1ncn(Cc3ccccc3F)n1)C(=O)N2C [Example 768]
6 | 61 | CN1C(=O)[C@@H](NC(=O)c2ncn(Cc3ccccc3)n2)CCn2nc(CO)cc21 (single isomer, unassigned) [Example 788]
7 | 64 | COCCc1cc2n(n1)CC[C@H](NC(=O)c1ncn(Cc3ccccc3)n1)C(=O)N2C [Example 767, 1-benzyl-N-[(6S)-2-(2-methoxyethyl)-4-methyl-5-oxo-7,8-dihydro-6H-pyrazolo [1,5-a][1,3]diazepin-6-yl]-1,2,4-triazole-3-carboxamide]
8 | 77 | COCCOCCc1cc2n(n1)CC[C@H](NC(=O)c1ncn(Cc3ccccc3F)n1)C(=O)N2C [Example 760, 1-[(2-fluorophenyl)methyl]-N-[(6S)-2-[2(2-methoxyethoxy)ethyl]-4-methyl-5-oxo-7,8-dihydro-6H-pyrazolo[1,5-a][1,3]diazepin-6-yl]-1,2,4-triazole-3-carboxamide]

Same assay, conditions: human RIP1 kinase domain (2-375), 50 uM ATP, 2 hours incubation, Transcreener ADP assay; read-out: RIP1 Ki

Row | Ki [nM] | Structure (SMILES)
9 | 1800 | CN1C(=O)C(NC(=O)c2n[nH]c3c2C[C@@H](C(F)(F)F)CC3)CCn2nc3c(c21)CCCC3 (stereo partly drawn) [Example 137, (5S)—N-(1-methyl-2-oxo-2,3,4,5,8,9,10,11-octahydro-1H-[1,3]diazepino[1,2-b]indazol-3-yl)-5-(trifluoromethyl)-4,5,6,7-tetrahydro-1H-indazole-3-carboxamide]
10 | 149 | CN1C(=O)C(NC(=O)c2ncn(Cc3ccccc3)n2)CCCn2nc(C3CC3)cc21 (centres unmarked) [Example 104, 1-benzyl-N-(2-cyclopropyl-4-methyl-5-oxo-4,5,6,7,8,9-hexahydropyrazolo[1,5-a][1,3]diazocin-6-yl)-1H-1,2,4-triazole-3-carboxamide]
11 | 98.3 | CN1C(=O)[C@@H](NC(=O)c2n[nH]c3c2CC(c2ccc(F)cc2)OC3)COc2ccccc21 (stereo partly drawn) [Example 205, 5-(4-fluorophenyl)-N—((S)-5-methyl-4-oxo-2,3,4,5-tetrahydrobenzo[b][1,4]oxazepin-3-yl)-1,4,5,7-tetrahydropyrano[3,4-c]pyrazole-3-carboxamide]
12 | 248 | CN1C(=O)[C@@H](NC(=O)c2n[nH]c3ccc(C4CC4)nc23)COc2ccccc21 [Example 144, 5-cyclopropyl-N-[(3S)-5-methyl-4-oxo-2,3-dihydro-1,5-benzoxazepin-3-yl]-1H-pyrazolo[4,3-b]pyridine-3-carboxamide]
13 | 27.1 | CN1C(=O)[C@@H](NC(=O)c2ncn(Cc3ccccc3)n2)CCn2nc(C(F)(F)F)cc21 [Example 91, (S)-1-benzyl-N-(4-methyl-5-oxo-2-(trifluoromethyl)-5,6,7,8-tetrahydro-4H-pyrazolo[1,5-a][1,3]diazepin-6-yl)-1H-1,2,4-triazole-3-carboxamide]
14 | 21.9 | CN1C(=O)[C@@H](NC(=O)c2ncn(Cc3ccc(F)cc3F)n2)CCn2nc(C3CC3)cc21 [Example 224, (S)—N-(2-cyclopropyl-4-methyl-5-oxo-5,6,7,8-tetrahydro-4H-pyrazolo[1,5-a][1,3]diazepin-6-yl)-1-(2,4-difluorobenzyl)-1H-1,2,4-triazole-3-carboxamide]

Same assay, conditions: human RIP1 kinase domain (2-375), Transcreener ADP assay, 50 uM ATP, 2 hours incubation; read-out: RIP1 Ki

Row | Ki [nM] | Structure (SMILES)
15 | 270 | CC[C@]1(C)OCc2cnc(C(=O)N[C@H]3COc4cc(F)cc(F)c4NC3=O)cc21 [Example 243, (S)—N—((S)-6,8-difluoro-4-oxo-2,3,4,5-tetrahydrobenzo[b][1,4]oxazepin-3-yl)-1-ethyl-1-m ethyl-1,3-dihydrofuro[3,4-c]pyridine-6-carboxamide]
16 | 171 | Cc1cc2n(n1)CCC(NC(=O)c1ncn(CC3CCCCC3)n1)C(=O)N2C (centres unmarked) [Example 253, 1-(cyclohexylmethyl)-N-(2,4-dimethyl-5-oxo-5,6,7,8-tetrahydro-4H-pyrazolo[1,5-a][1,3]diazepin-6-yl)-1H-1,2,4-triazole-3-carboxamide]
17 | 97.7 | Cc1cc2n(n1)CCC(NC(=O)c1ncn(Cc3ccc(F)cc3)n1)C(=O)N2C (centres unmarked) [Example 268, N-(2,4-dimethyl-5-oxo-5,6,7,8-tetrahydro-4H-pyrazolo[1,5-a][1,3]diazepin-6-yl)-1-(4-fluorobenzyl)-1H-1,2,4-triazole-3-carboxamide]

Same assay, conditions: tight-binding apparent inhibition constant; human RIP1 kinase domain (2-375) 50 nM, 50 uM ATP, 2 hours; read-out: Ki

Row | Ki [nM] | Structure (SMILES)
18 | 81.9 | CC[C@H]1CCCc2nc(C(=O)N[C@H]3COc4ccccc4N(C)C3=O)nn21 (racemic) [Example 403, (S)-5-ethyl-N—((S)-5-methyl-4-oxo-2,3,4,5-tetrahydrobenzo[b][1,4]oxazepin-3-yl)-5,6,7,8-tetrahydro-[1,2,4]triazolo[1,5-a]pyridine-2-carboxamide]
19 | 206 | CN1C(=O)[C@@H](NC(=O)c2nc3n(n2)CCNC3c2ccccc2)COc2ccccc21 (stereo partly drawn) [Example 452, N—((S)-5-methyl-4-oxo-2,3,4,5-tetrahydrobenzo[b][1,4]oxazepin-3-yl)-8-phenyl-5,6,7,8-tetrahydro-[1,2,4]triazolo[1,5-a]pyrazine-2-carboxamide]
20 | 15.9 | Cn1cc(-c2cccc3nc(C(=O)N[C@H]4COc5cc(F)cc(F)c5NC4=O)nn23)cn1 [Example 421, (S)—N-(6,8-difluoro-4-oxo-2,3,4,5-tetrahydrobenzo[b][1,4]oxazepin-3-yl)-5-(1-methyl-1H-pyrazol-4-yl)-[1,2,4]triazolo[1,5-a]pyridine-2-carboxamide]
21 | 40 | Cc1ncc2n1CC[C@@H](NC(=O)c1ncn(Cc3c(F)cccc3F)n1)C(=O)N2C [Example 578, 1-[(2,6-difluorophenyl)methyl]-N-[(3R)-1,7-dimethyl-2-oxo-4,5-dihydro-3H-imidazo[1,5-a][1,3]diazepin-3-yl]-1,2,4-triazole-3-carboxamide]
22 | 269 | CCc1cccc2nc(C(=O)N[C@H]3CCn4nccc4N(C)C3=O)nn12 [Example 374, (S)-5-ethyl-N-(4-methyl-5-oxo-5,6,7,8-tetrahydro-4H-pyrazolo[1,5-a][1,3]diazepin-6-yl)-[1,2,4]triazolo[1,5-a]pyridine-2-carboxamide]
23 | 87.9 | CN1C(=O)[C@@H](NC(=O)c2nc3n(n2)[C@@H](c2c(F)cccc2F)CCC3)CCn2nccc21 (racemic) [Example 401, (R)-5-(2,6-difluorophenyl)-N—((S)-4-methyl-5-oxo-5,6,7,8-tetrahydro-4H-pyrazolo[1,5-a][1,3]diazepin-6-yl)-5,6,7,8-tetrahydro-[1,2,4]triazolo[1,5-a]pyridine-2-carboxamide]
24 | 82 | Cc1cc2n(n1)CC[C@H](NC(=O)c1nnc(Cc3ccc(F)cc3)[nH]1)C(=O)N2C [Example 484, 5-[(4-fluorophenyl)methyl]-N-(6S)-2,4-dimethyl-5-oxo-7,8-dihydro-6H-pyrazolo[1,5-a][1,3]diazepin-6-yl-4H-1,2,4-triazole-3-carboxamide]
25 | 4.63 | CCC[C@@H]1CCCc2nc(C(=O)N[C@H]3COc4ccccc4N(C)C3=O)nn21 (racemic) [Example 416, (R)—N—((S)-5-methyl-4-oxo-2,3,4,5-tetrahydrobenzo[b][1,4]oxazepin-3-yl)-5-propyl-5,6,7,8-tetrahydro-[1,2,4]triazolo[1,5-a]pyridine-2-carboxamide]
26 | 46 | CN1C(=O)C(NC(=O)c2ncn(Cc3ccccc3)n2)CCn2nc(C3CCC3)cc21 (centres unmarked) [Example 454, 1-Benzyl-N-(2-cyclobutyl-4-methyl-5-oxo-5,6,7,8-tetrahydro-4H-pyrazolo[1,5-a][13]diazepin-6-yl)-1H-1,2,4-triazole-3-carboxamide]
27 | 110 | Cc1cc2n(n1)CC[C@H](NC(=O)c1ncc3c(n1)C1(CCCC1)OC3)C(=O)N2C [Example 552, N-[(6S)-2,4-dimethyl-5-oxo-7,8-dihydro-6H-pyrazolo[1,5-a][1,3]diazepin-6-yl]spiro[5H-furo[3,4-d]pyrimidine-7,1′-cyclopentane]-2-carboxamide]
28 | 57 | Cc1cn2c(n1)N(C)C(=O)[C@H](NC(=O)c1ncn(Cc3cc(F)ccc3F)n1)CC2 [Example 661, 1-[(2,5-difluorophenyl)methyl]-N-(7R)-2,9-dimethyl-8-oxo-6,7-dihydro-5H-imidazo[1,2-a][1,3]diazepin-7-yl-1,2,4-triazole-3-carboxamide]
29 | 40 | Cc1ncc2n1CC[C@@H](NC(=O)c1ncn(Cc3ccccc3F)n1)C(=O)N2C [Example 576, 1-[(2-fluorophenyl)methyl]-N-(3R)-1,7-dimethyl-2-oxo-4,5-dihydro-3H-imidazo[1,5-a][1, 3]diazepin-3-yl-1,2,4-triazole-3-carboxamide]
